Assay results: patent US12497365B2, “4-pyridinyl formamide compound or derivative thereof, preparation method therefor, herbicidal composition and use thereof” (Qingdao Kingagroot Chemical Compound Co., Ltd., priority 2019, dated 2025)

Key:
Experiment in all cases: Weeding effect in post-emergence stage
Type in all cases: in vivo
Conditions in all cases: active ingredient 2000 g/ha, 3 weeks after application, fresh weight control rate
Chenopodium album = test system: Chenopodium album
Procedure, shortened: (§1)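 Greenhouse post-emergence test: 2-3 leaf plants sprayed at 125-2000 g/ha, then fresh weight control rate scored at 3 weeks.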

Abutilon theophrasti = test system: Abutilon theophrasti
Procedure, shortened: as §1

Descurainia sophia = test system: Descurainia sophia
Procedure, shortened: as §1

[1] = test system: Amaranthus retroflexus L.
Procedure, shortened: as §1

| SMILES | Weeding effect, activity level (growth control rate), Chenopodium album (Chenopodium album) | Weeding effect, activity level (growth control rate), Abutilon theophrasti (Abutilon theophrasti) | Weeding effect, activity level (growth control rate), Descurainia sophia (Descurainia sophia) | Weeding effect, activity level (growth control rate), Amaranthus retroflexus L. [1] |
| --- | --- | --- | --- | --- |
| CSc1ccccc1-c1nccc(C(=O)Nc2nnnn2C)c1Cl [Compound 1-42] | 5 (Level 5: growth control rate is above 85%) | 5 (Level 5: growth control rate is above 85%) | 5 (Level 5: growth control rate is above 85%) | 5 (Level 5: growth control rate is above 85%) |
| Cc1ccc(-c2nccc(C(=O)Nc3nnnn3C)c2Cl)cc1 [Compound 1-11] | 5 (Level 5: growth control rate is above 85%) | 5 (Level 5: growth control rate is above 85%) | 5 (Level 5: growth control rate is above 85%) | 5 (Level 5: growth control rate is above 85%) |
| Cn1nnnc1NC(=O)c1ccnc(-c2ccc(F)cc2)c1C=C(F)F [Compound 1-222] | 5 (Level 5: growth control rate is above 85%) | 5 (Level 5: growth control rate is above 85%) | 5 (Level 5: growth control rate is above 85%) | 5 (Level 5: growth control rate is above 85%) |
| Cn1nnnc1NC(=O)c1ccnc(-c2cc3ccccc3c3ccccc23)c1Cl [Compound 1-115] | 5 (Level 5: growth control rate is above 85%) | 5 (Level 5: growth control rate is above 85%) | 5 (Level 5: growth control rate is above 85%) | 5 (Level 5: growth control rate is above 85%) |
| Cn1nnnc1NC(=O)c1ccnc(-c2cscn2)c1Cl [Compound 1-228] | 5 (Level 5: growth control rate is above 85%) | 5 (Level 5: growth control rate is above 85%) | 5 (Level 5: growth control rate is above 85%) | 5 (Level 5: growth control rate is above 85%) |
| Cn1nnnc1NC(=O)c1ccnc(-c2ccnn2C(F)F)c1Cl [Compound 1-181] | 5 (Level 5: growth control rate is above 85%) | 5 (Level 5: growth control rate is above 85%) | 5 (Level 5: growth control rate is above 85%) | 5 (Level 5: growth control rate is above 85%) |
| Cn1nnnc1NC(=O)c1ccnc(-c2cnoc2)c1Cl [Compound 1-193] | 5 (Level 5: growth control rate is above 85%) | 5 (Level 5: growth control rate is above 85%) | 5 (Level 5: growth control rate is above 85%) | 5 (Level 5: growth control rate is above 85%) |
| Cn1nnnc1NC(=O)c1ccnc(-c2ccc(Cl)c(Cl)c2)c1Cl [Compound 1-88] | 5 (Level 5: growth control rate is above 85%) | 5 (Level 5: growth control rate is above 85%) | 5 (Level 5: growth control rate is above 85%) | 5 (Level 5: growth control rate is above 85%) |
| Cn1nnnc1NC(=O)c1ccnc(-c2ccc3c(c2)oc2ccccc23)c1Cl [Compound 1-117] | 5 (Level 5: growth control rate is above 85%) | 5 (Level 5: growth control rate is above 85%) | 5 (Level 5: growth control rate is above 85%) | 5 (Level 5: growth control rate is above 85%) |
| Cn1nnnc1NC(=O)c1ccnc(-c2cc(C(F)(F)F)ccc2F)c1Cl [Compound 1-75] | 5 (Level 5: growth control rate is above 85%) | 5 (Level 5: growth control rate is above 85%) | 5 (Level 5: growth control rate is above 85%) | 5 (Level 5: growth control rate is above 85%) |
| Cn1nnnc1NC(=O)c1ccnc(-c2ccnc(C#N)n2)c1Cl [Compound 1-165] | 5 (Level 5: growth control rate is above 85%) | 5 (Level 5: growth control rate is above 85%) | 5 (Level 5: growth control rate is above 85%) | 5 (Level 5: growth control rate is above 85%) |
| Cn1nnnc1NC(=O)c1ccnc(Nc2ccccc2)c1Cl [Compound 1-2075] | 5 (Level 5: growth control rate is above 85%) | 5 (Level 5: growth control rate is above 85%) | 5 (Level 5: growth control rate is above 85%) | 5 (Level 5: growth control rate is above 85%) |
| COc1cccc(-c2nccc(C(=O)Nc3nnnn3C)c2Cl)c1 [Compound 1-29] | 5 (Level 5: growth control rate is above 85%) | 5 (Level 5: growth control rate is above 85%) | 5 (Level 5: growth control rate is above 85%) | 5 (Level 5: growth control rate is above 85%) |
| Cc1nnc(-c2nccc(C(=O)Nc3nnnn3C)c2Cl)s1 [Compound 1-249] | 5 (Level 5: growth control rate is above 85%) | 5 (Level 5: growth control rate is above 85%) | 5 (Level 5: growth control rate is above 85%) | 5 (Level 5: growth control rate is above 85%) |
| Cn1nnnc1NC(=O)c1ccnc(-c2ccc(C(=O)O)cc2)c1Cl [Compound 1-39] | 5 (Level 5: growth control rate is above 85%) | 5 (Level 5: growth control rate is above 85%) | 5 (Level 5: growth control rate is above 85%) | 5 (Level 5: growth control rate is above 85%) |
| Cn1nnnc1NC(=O)c1ccnc(-c2ccc(C(F)(F)F)cc2F)c1Cl [Compound 1-74] | 5 (Level 5: growth control rate is above 85%) | 5 (Level 5: growth control rate is above 85%) | 5 (Level 5: growth control rate is above 85%) | 5 (Level 5: growth control rate is above 85%) |
| Cn1nnnc1NC(=O)c1ccnc(-c2ccoc2)c1Cl [Compound 1-183] | 5 (Level 5: growth control rate is above 85%) | 5 (Level 5: growth control rate is above 85%) | 5 (Level 5: growth control rate is above 85%) | 5 (Level 5: growth control rate is above 85%) |
| Cn1nnnc1NC(=O)c1ccnc(-c2ccccc2Cl)c1Cl [Compound 1-18] | 5 (Level 5: growth control rate is above 85%) | 5 (Level 5: growth control rate is above 85%) | 5 (Level 5: growth control rate is above 85%) | 5 (Level 5: growth control rate is above 85%) |
| Cn1nnnc1NC(=O)c1ccnc(-c2ccc(C#N)nc2)c1Cl [Compound 1-134] | 5 (Level 5: growth control rate is above 85%) | 5 (Level 5: growth control rate is above 85%) | 5 (Level 5: growth control rate is above 85%) | 5 (Level 5: growth control rate is above 85%) |
| CSc1c(C(=O)Nc2nnnn2C)ccnc1-c1ccc(C(N)=O)cc1 [Compound 1-2053] | 5 (Level 5: growth control rate is above 85%) | 5 (Level 5: growth control rate is above 85%) | 5 (Level 5: growth control rate is above 85%) | 5 (Level 5: growth control rate is above 85%) |
| COc1ccc(CSc2nccc(C(=O)Nc3nnnn3C)c2Cl)cc1 [Compound 1-2069] | 5 (Level 5: growth control rate is above 85%) | 5 (Level 5: growth control rate is above 85%) | 5 (Level 5: growth control rate is above 85%) | 5 (Level 5: growth control rate is above 85%) |
| Cn1nnnc1NC(=O)c1ccnc(-c2ccc(F)cn2)c1Cl [Compound 1-123] | 5 (Level 5: growth control rate is above 85%) | 5 (Level 5: growth control rate is above 85%) | 5 (Level 5: growth control rate is above 85%) | 5 (Level 5: growth control rate is above 85%) |
